# Laboratory results as given in PMC5487684, “Safety, Pharmacokinetics, and Antiviral Activity of a Novel HIV Antiviral, ABX464, in Treatment-Naive HIV-Infected Subjects in a Phase 2 Randomized, Controlled Study” (Antimicrobial Agents and Chemotherapy, 2017).
# Entries after “also recorded” stand apart in the source; their conditions may differ. Like-named read-outs stand apart in the source and are kept apart here.
# How the values were obtained:
# HIV [1] = assay: HIV viral load (HIV-1 RNA copies per milliliter) in treatment-naive HIV-infected patients; format: in vivo
# Experimental: Safety assessments and laboratory tests were carried out according to the schedules described in Table S4 for groups dosed every day, every 3 days, and 3 times a day. Follow-up visits were scheduled for 7 days after the last dose and subsequently once every week in order to assess the elimination of the main ABX464 metabolite and to assess the viral load. Follow-up visits were terminated when the virus load was within 0.5 log of the baseline value or after 3 follow-up visits, whichever came first. Prior to the statistical analyses, AEs were coded using the Medical Dictionary for Regulatory Activities (MedDRA dictionary; last available version) in order to be tabulated by system organ class (SOC) and preferred term (PT). The AEs were analyzed according to the treatment emergence phase from the first study drug administration on day 1 up to 48 h after the last study drug administration. The number and percentage of subjects with at least one TEAE were tabulated by SOC and PT for each group and dose. The number of occurrences of TEAEs was also analyzed in the same way by SOC and PT for each group and dose, by grade of severity for each group and dose, and by level of causality to the study drug for each group and dose.
# (§1) Plasma samples were analyzed for ABX464 and ABX464-NGlc using validated bioanalytical methods by Atlanbio (Saint Nazaire, France) according to good laboratory practices. Pharmacokinetic parameters were calculated by noncompartmental analysis (NCA), using Phoenix WinNonlin software (Pharsight Corporation) running on a personal computer. On day 1, the following PK parameters were generated: Cmax, the time to Cmax (Tmax), lag time (tlag), elimination rate constant (kel), area under the concentration-time curve (AUC) from time zero to time t (AUC0–t), AUC from time zero to infinity (AUC0–∞), apparent clearance (CL/F), and apparent volume of distribution (V/F). On the other days of PK assessment, only Cmax, Tmax, tlag, kel, and AUC0–t were generated. The secondary analysis concerned pharmacodynamic (PD) activity, as expressed by CD4 and CD8 levels and viral load across time. The HIV viral load was analyzed in the prequalified individual local study center laboratories. CD4 and CD8 cell counts were also determined in the local study center laboratories. With respect to the viral load, changes in the log-transformed viral load values between 24 h postdose and predose were calculated on each day, and a comparison between each dose level and pooled placebo data was made. Moreover, the rate of success (defined as a decrease in the viral load value of at least 0.5 log) was evaluated for each treatment (including placebo) and compared between treatments.
# No formal sample size determination was done. The aim of the study was to obtain reliable and consistent data and to expose a limited number of subjects to ABX464. To achieve this aim, six subjects per group received ABX464. A mixed model analysis of covariance of the changes in the viral load compared to that at the baseline was conducted on log-transformed values. Baseline parameters and age were covariates, treatment groups were fixed effects, and subjects were random effects.
# [2] = test system: HIV replication in macrophages; design: method as in PMID 25889234; settings: in vitro; cited from earlier work
# [3] = Plasma pharmacokinetics of ABX464 and ABX464-NGlc in HIV-infected subjects; format: in vivo, human; settings: for AUC(0-inf) / Cmax / half-life / Tmax: human, plasma, po
# Experimental: as §1
# HIV replication in PBMCs = test system: HIV replication in PBMCs; design: method as in PMID 25889234; settings: in vitro; cited from earlier work
# HIV [4] = test system: HIV; design: method as in PMID 25889234; settings: human PBMCs, treatment for at least 24 weeks; cited from earlier work
# HIV [5] = test system: HIV; design: method as in PMID 25889234; settings: cited from earlier work
# CD4 and CD8 cell counts = CD4 and CD8 cell counts in HIV-infected subjects; format: in vivo, human
# Experimental: as §1, with “The secondary analysis concerned pharmacodynamic (PD) activity, as expressed by CD4 and CD8 levels and viral load across time.” left out
smiles,measurement,setting,value
FC(F)(F)Oc1ccc(Nc2ccc3cccc(Cl)c3n2)cc1 [ABX464],Change in log10 no. of RNA copies/ml from that at the baseline,"HIV [1]; Group 6 (100 mg q.d., fasted), subject 804, day 15",−0.59 log10 no. of RNA copies/ml
same,Change in log10 no. of RNA copies/ml from that at the baseline,"HIV [1]; Group 6 (100 mg q.d., fasted), subject 807, day 11",−0.51 log10 no. of RNA copies/ml
same,Change in log10 no. of RNA copies/ml from that at the baseline,"HIV [1]; Group 6 (100 mg q.d., fasted), subject 807, day 18",−1.44 log10 no. of RNA copies/ml
same,Change in log10 no. of RNA copies/ml from that at the baseline,"HIV [1]; Group 7 (150 mg every 3 days, fed), subject 908, day 16",−0.72 log10 no. of RNA copies/ml
same,Change in log10 no. of RNA copies/ml from that at the baseline,"HIV [1]; Group 7 (150 mg every 3 days, fed), subject 908, day 19",−0.53 log10 no. of RNA copies/ml
same,Change in log10 no. of RNA copies/ml from that at the baseline,"HIV [1]; Group 7 (150 mg every 3 days, fed), subject 908, day 20",−0.59 log10 no. of RNA copies/ml
same,Change in log10 no. of RNA copies/ml from that at the baseline,"HIV [1]; Group 8 (150 mg q.d., fed), subject 1001, day 10",−0.5 log10 no. of RNA copies/ml
same,Change in log10 no. of RNA copies/ml from that at the baseline,"HIV [1]; Group 8 (150 mg q.d., fed), subject 1001, day 11",−0.62 log10 no. of RNA copies/ml
same,Change in log10 no. of RNA copies/ml from that at the baseline,"HIV [1]; Group 8 (150 mg q.d., fed), subject 1001, day 14",−0.72 log10 no. of RNA copies/ml
same,Change in log10 no. of RNA copies/ml from that at the baseline,"HIV [1]; Group 8 (150 mg q.d., fed), subject 1001, day 15",−0.68 log10 no. of RNA copies/ml
same,Change in log10 no. of RNA copies/ml from that at the baseline,"HIV [1]; Group 8 (150 mg q.d., fed), subject 1004, day 10",−0.5 log10 no. of RNA copies/ml
same,Change in log10 no. of RNA copies/ml from that at the baseline,"HIV [1]; Group 8 (150 mg q.d., fed), subject 1004, day 14",−0.51 log10 no. of RNA copies/ml
same,Change in log10 no. of RNA copies/ml from that at the baseline,"HIV [1]; Group 8 (150 mg q.d., fed), subject 1004, day 15",−0.51 log10 no. of RNA copies/ml
same,Change in log10 no. of RNA copies/ml from that at the baseline,"HIV [1]; Group 8 (150 mg q.d., fed), subject 1005, day 7",−0.53 log10 no. of RNA copies/ml
same,Change in log10 no. of RNA copies/ml from that at the baseline,"HIV [1]; Group 8 (150 mg q.d., fed), subject 1005, day 11",−0.52 log10 no. of RNA copies/ml
same,Change in log10 no. of RNA copies/ml from that at the baseline,"HIV [1]; Group 8 (150 mg q.d., fed), subject 1008, day 8",−0.59 log10 no. of RNA copies/ml
same,Change in log10 no. of RNA copies/ml from that at the baseline,"HIV [1]; Group 8 (150 mg q.d., fed), subject 1008, day 10",−0.57 log10 no. of RNA copies/ml
same,Change in log10 no. of RNA copies/ml from that at the baseline,"HIV [1]; Group 8 (150 mg q.d., fed), subject 1008, day 11",−0.56 log10 no. of RNA copies/ml
same,Change in log10 no. of RNA copies/ml from that at the baseline,"HIV [1]; Group 8 (150 mg q.d., fed), subject 1008, day 14",−0.53 log10 no. of RNA copies/ml
same,Mean changes in the viral load vs placebo group,"HIV [1]; any time point over the 14-day study period, all treatment groups",No statistically significant differences
same,Subjects with a decrease of ≥0.5 log10 in HIV RNA load,"HIV [1]; group 1, 25 mg every 3 days, fasted",3 subjects
same,Subjects with a decrease of ≥0.5 log10 in HIV RNA load,"HIV [1]; group 2, 25 mg q.d., fasted",1 subjects
same,Subjects with a decrease of ≥0.5 log10 in HIV RNA load,"HIV [1]; group 4, 50 mg t.i.d., fed",2 subjects
same,Subjects with a decrease of ≥0.5 log10 in HIV RNA load,"HIV [1]; group 5, 75 mg q.d., fed",1 subjects
same,Subjects with a decrease of ≥0.5 log10 in HIV RNA load,"HIV [1]; group 6, 100 mg q.d., fasted",2 subjects
same,Subjects with a decrease of ≥0.5 log10 in HIV RNA load,"HIV [1]; group 7, 150 mg every 3 days, fed",1 subjects
same,Subjects with a decrease of ≥0.5 log10 in HIV RNA load,"HIV [1]; group 8, 150 mg q.d. for 2 weeks, fed (6 treated)",4 subjects
same,Inhibition of HIV replication in macrophage culture,[2],can inhibit HIV replication
same,Concomitant food effect on relative bioavailability,[3]; fed vs fasted,substantial increase in the relative bioavailability
same,AUC(0-inf),"[3]; 50 mg, HIV-infected, single oral 50mg (fasted), N 7, read-out: AUC0-∞, GM",42.8 ng·h/mL
same,AUC(0-inf),"[3]; 50 mg, HIV-infected, single oral 50mg (fasted), N 7, read-out: AUC0-∞, Mean",55.4 ng·h/mL
same,Cmax,"[3]; 50 mg, HIV-infected, single oral 50mg (fasted), N 7, read-out: Cmax, GM",14.9 ng/mL
same,Cmax,"[3]; 50 mg, HIV-infected, single oral 50mg (fasted), N 7, read-out: Cmax, Mean",19.4 ng/mL
same,half-life,"[3]; 50 mg, HIV-infected, single oral 50mg (fasted), N 7, read-out: t1/2, GM (converted)",0.94 h
same,half-life,"[3]; 50 mg, HIV-infected, single oral 50mg (fasted), N 7, read-out: t1/2, Mean (converted)",0.96 h
same,Tmax,"[3]; 50 mg, HIV-infected, single oral 50mg (fasted), N 7, read-out: tmax, GM",1.8 h
same,Tmax,"[3]; 50 mg, HIV-infected, single oral 50mg (fasted), N 7, read-out: tmax, Mean",1.9 h
same,half-life,"[3]; HIV-infected subjects, oral, read-out: half-life (t1/2) (converted)",~1 h
same,Antiviral effect on HIV replication in PBMCs,HIV replication in PBMCs,can inhibit HIV replication
same,Development of drug resistance in vitro,HIV [4],no development of resistance-inducing mutations; also recorded: did not induce any drug resistance
same,Virus replication in two humanized mouse models of HIV infection,HIV [5],substantially reduced virus replication
same,Mice with an undetectable viral load,"HIV [5]; humanized mice, after 2 to 3 weeks of treatment",30%
same,Virus rebound after termination of therapy,"HIV [5]; vs cART-treated control animals, over 6 weeks after treatment termination",substantially lower virus rebound
same,CD4 profile,CD4 and CD8 cell counts; each ABX464 dose,no trend associated with product use or dose
same,Mean changes in the CD8 cell counts from baseline,"CD4 and CD8 cell counts; human, in vivo",did not show any particular trend
